The text below walks through data of ChEMBL document CHEMBL3507680, “University of Dundee, Gates Library screen for HepG2 cell viability”.

This series can be described thus: Human HepG2 cell viability assay in 384 well format. Type of series: toxicity, cell-based. Also on record: dose 125 nL, time 70.5 hour; concentration not given beside the values. The note with it: HepG2 cells, read-out: Inhibition.
For the compound `COc1ccc(C(NCc2cccc(C#N)c2)C(C)C)cc1` (stereo not given), the cytotoxicity at 70.5 h is 5.48%.
In the case of `COc1ccc(CN2CCn3cncc3C2)cc1Cn1cncn1` it was -5.89%; in that of `CCn1nc(C)c(CNC(=O)NCC(C)(O)c2ccsc2)c1C` (stereo not given), -8.94%; in that of `COc1ccc(NC(=O)C(C)n2cncn2)cn1` (stereo not given), -2.08%.
Consider `O=C(NCCOCC1CC1)Nc1ccc(F)cc1`, for which the cytotoxicity at 70.5 h was -9.49%.
In the case of `CCc1noc(C)c1C(=O)NCC(c1ccc(C)cc1)N(C)C` (stereo not given) it was -3.99%; in that of `COCCn1cnnc1CNc1cc(C)nc2c(C)c(C)nn12`, -5.61%.
In the case of `CC(=O)N(C)CCc1nc(-c2cc(C(N)=O)co2)cs1` it was -6.25%.
In the case of `CCc1nnsc1C(=O)N1CCCN(Cc2cnn(CC)c2)CC1` it was -7.53%; in that of `CCOCCCNC(=O)C1(C)CCC(=O)N1c1cc(OC)ccc1OC` (stereo not given), -2.77%; in that of `CC(C)(C)OC(=O)NCC1CCCCN1Cc1cccc(C(N)=O)c1` (stereo not given), 1.21%.
Regarding `CCc1noc(C(C)N2CCC(O)CC2)n1` (stereo not given), the cytotoxicity at 70.5 h is -10.2%.
In the case of `O=c1n(Cc2cccc(F)c2)nc2ncccn12` it was 15.8%; in that of `COCc1cc(O)nc(C2CCCN(Cc3ccc(F)cc3)C2)n1` (stereo not given), -0.561%; in that of `CCSCC(C)NCc1nncn1C1CCCCC1` (stereo not given), -2.76%.
With `Cn1cc(CN2C[C@@H]3COC[C@]3(C(=O)N3CCCO3)C2)cn1`, the cytotoxicity at 70.5 h is -1.04%.
In the case of `COc1ccccc1OCCNS(=O)(=O)N1CCOCC1` it was -11.3%; in that of `CCOc1ccc(Cl)cc1CCNC(=O)Cn1nc(C)ccc1=O`, 7.64%; in that of `CCN1CC(C(=O)NC(C)(C)CNC(=O)OC(C)(C)C)CC1=O` (stereo not given), -8.18%.
In the case of `Cc1noc(C)c1CN1CCc2nn(C(C)C)c(=O)cc2C1` it was 38.6%; in that of `COC(=O)NCc1ccc(NC(=O)CC2=CCCCC2)cc1`, 0.0251%; in that of `COc1ccc(C(=O)N(C)Cc2nnc3ccccn23)c(OC)c1`, -15.7%.
In the case of `Cc1nc(CC(=O)N2CCC[C@H]2c2nc(C(C)C)no2)cs1` it was -1.93%.
Consider `CCC(C)N(CCOC)Cc1nc2c(cnn2C)c(=O)[nH]1` (stereo not given), for which the cytotoxicity at 70.5 h came to 17.1%.
In the case of `Cc1nsc(N2CCN(Cc3cccc(F)c3)CC2)n1` it was 0.252%; in that of `CN(C)C[C@H]1C[C@@H](CO)CN(C(=O)c2cc(=O)[nH]c3cc(F)ccc23)C1`, -2.71%; in that of `CCC[C@@H]1CN(Cc2cc3c(cc2OC)OCO3)C[C@H]1C(=O)O`, -2.47%.
On to `COc1ccccc1CN(CC1CCCO1)C(=O)c1csnn1` (stereo not given), for which the cytotoxicity at 70.5 h was -12.2%.
As for `Cc1nc(C)n(C2CCCN(C(=O)c3ncoc3C(C)C)C2)n1` (stereo not given), the cytotoxicity at 70.5 h was -11.1%.
As to `O=C(NCCCc1ccc(O)cc1)C1(O)Cc2ccccc2C1`, the cytotoxicity at 70.5 h is -8.24%.
In the case of `Cn1c(CN2CCCCC2)nnc1C1CCCN(C(=O)CCC(N)=O)C1` (stereo not given) it was -9%.
On to `Cc1cnn(CCNCC(O)c2ccc3c(c2)OCCO3)c1` (stereo not given), for which the cytotoxicity at 70.5 h came to 4.42%.
In the case of `CC(=O)N1CCC2(CC1)CN(C(=O)c1cccc3[nH]ccc13)C2` it was -11.6%.
In the case of `O=C(CNC1CCc2ncnn2C1)NCCc1cccs1` (stereo not given) it was 2.68%; in that of `CC(C)=CCN1CCC2(CC1)CC(=O)N(Cc1cc(F)cc(F)c1)C2`, 2.51%; in that of `CN1CCC(Oc2ccc(NC(=O)c3ccccc3Br)cc2)CC1`, -7.15%.
In the case of `COc1ccc(NC(=O)c2cnc(N3CCN(C)CC3)nc2C)cc1` it was -6.31%; in that of `NC(=O)c1ccc(-c2nc3c(c(=O)[nH]2)CCNC3)cc1`, -2.1%; in that of `CC(C)(C)c1nnc(CNc2cc(F)ccc2OCC2CCCO2)o1` (stereo not given), 32.8%.
Regarding `COCCO[C@@H]1CCN(C(=O)c2ccc[nH]2)[C@H]1Cc1cnn(C)c1`, the cytotoxicity at 70.5 h was -7.64%.
On to `COc1ccc(N2CCN(C(=O)NC(C)c3nncn3C)CC2)cc1` (stereo not given), for which the cytotoxicity at 70.5 h is -3.61%.
In the case of `Cc1csc(CN(C)C(=O)Nc2cnn(CC3CCCO3)c2)n1` (stereo not given) it was -12.7%; in that of `CN(C)CCN1C2(CCN(Cc3nccs3)C2)c2ccccc2S1(=O)=O` (stereo not given), 24.4%.
Take `Cc1ccc(Cl)cc1N1CCN(CC(=O)NC(C)c2ccco2)CC1` (stereo not given): the cytotoxicity at 70.5 h was found to be 1.33%.
Take `CC(C(=O)NCc1ccc2c(c1)OCCO2)n1cncn1` (stereo not given): the cytotoxicity at 70.5 h stood at 31.8%.
For `CCc1cc(=O)[nH]c(-c2ccc(NCCc3ccc(O)cc3)nc2)n1`, the cytotoxicity at 70.5 h is -3.24%.
In the case of `COCC(=O)N1CCC(c2n[nH]c3nccnc23)CC1` it was -7.45%; in that of `Cc1cnn(C2CCCN(C(=O)Cc3ccc(C)s3)C2)c1` (stereo not given), -0.137%; in that of `CC(=O)NCCn1ccc(-c2ccccn2)n1`, -2.73%.
As to `COc1nccnc1-c1cc(NC2CCCC2)nc2[nH]ccc12`, the cytotoxicity at 70.5 h is -16.1%.
For the compound `CC1CCN(c2ccc3c(-c4ncc(C(=O)O)s4)noc3c2)CC1`, the cytotoxicity at 70.5 h is -5.23%.
Consider `COc1cccc([C@@H]2CN(C3CSCCSC3)C[C@H]2C(=O)O)c1`, for which the cytotoxicity at 70.5 h was -1.5%.
`O=C(NCCc1csc(-c2ccncc2)n1)C1CC(=O)N(C2CC2)C1` (stereo not given): the cytotoxicity at 70.5 h was -3.67%.
Consider `CO[C@@H]1CO[C@@]2(CCCN(C(=O)C3CC=CC3)C2)C1`, for which the cytotoxicity at 70.5 h was -1.96%.
In the case of `CCOC(=O)NCCC(O)c1ccoc1` (stereo not given) it was -11.9%.
In the case of `CN1CCCC[C@@H]2[C@H]1[C@@H](c1ccccc1)CCN2C(=O)c1cnccn1` it was 1.76%; in that of `O=C(COc1coc(CN2CCCC2)cc1=O)NCc1ccccc1Cl`, 3.62%; in that of `CCNC(=O)[C@@H]1C[C@H](NC(=O)c2ccc(C)s2)CN1Cc1ccc(C)o1`, 16.1%.
In the case of `O=C([C@@H]1COC[C@H]2CN(C3CCCCC3)C[C@H]21)N1CCOCC1` it was -9.47%; in that of `CC(NC(=O)N(C)Cc1ccsc1)c1ccc2c(c1)OCO2` (stereo not given), -14.1%; in that of `COCc1cn(C[C@H]2CC3CCN2C[C@@H]3C(=O)Nc2ccccc2)nn1` (stereo not given in full), -6.64%.
As for `CC(=O)NCC1CCN(C(=O)NCCc2ccc(Cl)s2)CC1`, the cytotoxicity at 70.5 h is -6.89%.
As to `Fc1ccc(NCc2ccncc2)c(OC(F)F)c1`, the cytotoxicity at 70.5 h is -5.76%.
Regarding `COC(=O)c1cccc(C(=O)NCc2ccc3c(c2)CCCN3C)c1`, the cytotoxicity at 70.5 h is -3.61%.
In the case of `Cc1ccc(N2CCCC(NCc3c(C)noc3C)C2)nn1` (stereo not given) it was -8.52%; in that of `COc1ccc(NC(=O)NCCCn2nc3ccccn3c2=O)cc1`, -3.39%.
Regarding `O=C(C(CNCc1cccc(O)c1)c1ccccc1)N1CCOCC1` (stereo not given), the cytotoxicity at 70.5 h is -4.48%.
For the compound `CCc1nc(C)cn1C(=O)Nc1ccccc1`, the cytotoxicity at 70.5 h is 2.98%.
`Cc1noc(CCCC(=O)NC(C)c2nnc3n2CCC3)n1` (stereo not given): the cytotoxicity at 70.5 h is -4.98%.
In the case of `Cc1nn(C)c(C)c1C(C(=O)O)N1CC=C(c2ccccc2)CC1` (stereo not given) it was 10.9%; in that of `CCc1ccc(C(N)c2cccc(S(C)(=O)=O)c2)cc1` (stereo not given), -4.78%; in that of `c1ccc(Cc2nnc(CN3CCn4c(nnc4C4CC4)C3)o2)cc1`, -13.3%.
Take `Cc1cc(C)n(CC2CN(Cc3nnc(C)o3)CCO2)n1` (stereo not given): the cytotoxicity at 70.5 h is -3.59%.
Turning to `CN(Cc1ccccc1)CC(C)(C)NC(=O)c1cnccn1`, the cytotoxicity at 70.5 h is -0.0333%.
In the case of `c1cnc(-c2noc(C3CN(Cc4ccsc4)C3)n2)cn1` it was -8.37%; in that of `Cc1noc(-c2cccnc2N2CCOC(C)(c3cnn(C)c3)C2)n1` (stereo not given), -6.06%; in that of `Cc1c[nH]c(CN2CCCCC2CCn2ccnc2C)c(C)c1=O` (stereo not given), -8.38%.
In the case of `c1cnn(CC2CN(CC3CCCC3)CCO2)c1` (stereo not given) it was -9.69%; in that of `C=C(C)COc1cccc(CN(C)C(C)c2nccs2)c1` (stereo not given), -4%.
In the case of `Cc1cc(C(F)(F)F)n2nc(C3CCCN3C3CCSCC3)cc2n1` (stereo not given) it was -2.47%; in that of `COc1ccccc1[C@@H]1CN(Cc2c(C)noc2C)C[C@H]1C(=O)O`, -8.62%.
`COc1ncnc(N(C)C)c1NC(=O)Cc1c[nH]c2ccc(F)cc12`: the cytotoxicity at 70.5 h is -7.3%.
Take `CSCCC(=O)N1CCC(CCC(=O)NCC2CCCO2)CC1` (stereo not given): the cytotoxicity at 70.5 h was -13.2%.
In the case of `COCc1cccc(C(=O)N2CCN(C3=NCC(C)(C)S3)CC2)c1` it was -3.27%.
In the case of `Cc1ccccc1N1CCN(c2cc(N(C)C)ncn2)C(C)C1` (stereo not given) it was -9.42%.
In the case of `c1cnnc(NCC2CN(CCN3CCCCC3)CCO2)c1` (stereo not given) it was -11.2%.
`Cc1ccc(CN2CCC3(CC2)CC(NC(=O)c2ccccn2)CO3)o1` (stereo not given): the cytotoxicity at 70.5 h is -2.22%.
In the case of `CN(CC1CCCCC1)C(=O)c1cn(C)nc1-c1cccnc1` it was 3.52%; in that of `Cc1cccnc1[C@]1(O)CC[C@H]2CN(Cc3cccc(Cl)c3Cl)C[C@H]21`, -3.29%.
In the case of `Cc1occc1C(=O)N1CCCN(Cc2nccn2C)CC1` it was -8.79%; in that of `O=C(NCCc1nnc2n1CCC2)NCC1(c2ccccc2F)CC1`, -6.03%.
Take `Cc1c(CS(C)(=O)=O)cccc1NC(=O)CC1CCCC1`: the cytotoxicity at 70.5 h was -7.53%.
As to `COc1cccc(OC2CN(C(=O)c3ccnc(OC)c3)C2)c1`, the cytotoxicity at 70.5 h is -21%.
In the case of `COC(=O)C1CCCN1Cc1ccco1` (stereo not given) it was -8.41%; in that of `COc1cncc(-n2ccnc2-c2ccc(C(=O)O)s2)c1`, -10%; in that of `CCS(=O)(=O)CC(C)N(C)C(=O)COc1ccccc1C#N` (stereo not given), -15.4%.
In the case of `COc1c(CNCc2cccc(CS(C)(=O)=O)c2)c(C)nn1C` it was -17%; in that of `CN(C)C[C@H]1CC[C@@H](Cc2ccc3c(cnn3C)c2)O1`, -11.9%.
`O=C(c1cc(-c2cccs2)cs1)N1CCOCC1`: the cytotoxicity at 70.5 h was -8.23%.
In the case of `CCc1nnc(CN(C)c2cc(C)nc3c(C)c(C)nn23)o1` it was -2.11%.
